These results are taken from ChEMBL document CHEMBL3286174, “Orally active 7-substituted (4-benzylphthalazin-1-yl)-2-methylpiperazin-1-yl]nicotinonitriles as active-site inhibitors of sphingosine 1-phosphate lyase for the treatment of multiple sclerosis” (J Med Chem, 2014).

The target in data set [1] is T1, Sphingosine-1-phosphate lyase 1 (Homo sapiens, UniProt O95470).
T1 sequence (O95470 whole entry): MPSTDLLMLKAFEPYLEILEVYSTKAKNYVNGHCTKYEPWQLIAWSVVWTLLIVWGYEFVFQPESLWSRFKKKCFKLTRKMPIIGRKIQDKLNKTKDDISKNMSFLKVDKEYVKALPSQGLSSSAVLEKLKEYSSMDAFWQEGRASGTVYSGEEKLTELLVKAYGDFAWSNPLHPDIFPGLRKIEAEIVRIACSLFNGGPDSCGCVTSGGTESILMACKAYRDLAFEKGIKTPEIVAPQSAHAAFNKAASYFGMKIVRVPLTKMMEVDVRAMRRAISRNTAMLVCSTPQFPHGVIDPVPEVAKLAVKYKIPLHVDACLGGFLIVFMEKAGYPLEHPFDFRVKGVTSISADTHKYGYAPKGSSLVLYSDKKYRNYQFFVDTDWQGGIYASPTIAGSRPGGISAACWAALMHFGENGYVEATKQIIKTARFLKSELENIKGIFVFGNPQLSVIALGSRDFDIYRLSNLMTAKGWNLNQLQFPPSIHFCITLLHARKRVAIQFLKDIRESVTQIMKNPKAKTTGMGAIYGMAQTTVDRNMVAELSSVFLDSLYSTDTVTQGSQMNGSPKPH
The data set is described as follows: biochemical.
Description: Inhibition of human recombinant S1PL (62 to 568) expressed in Sf9 insect cells using S1P as substrate after 1 hr

Another data set has as its target Protein smoothened (Homo sapiens, UniProt Q99835). In words: Antagonist activity at smoothened (unknown origin).
The nature of data set [2]: Blood clearance in Sprague-Dawley rat at 1 mg/kg, iv. Particulars: whole blood. The arrangement: dose 1 mg/kg, route intravenous. In kind it is ADME, organism-based.
The nature of data set [3]: Half life in Sprague-Dawley rat at 1 mg/kg, iv. In kind it is ADME, organism-based. The arrangement: dose 1 mg/kg, route intravenous. Particulars: in vivo.
Data set [4] in a line: AUC (0 to infinity) in Sprague-Dawley rat at 3 mg/kg, po. Format: ADME, organism-based, Plasma. Particulars: blood. The arrangement: time infinity, dose 3 mg/kg, route oral.
Data set [5] is described as follows: Cmax in Sprague-Dawley rat at 3 mg/kg, po. Format: ADME, organism-based. The arrangement: dose 3 mg/kg, route oral. Particulars: in vivo.
Data set [6] is described as follows: Tmax in Sprague-Dawley rat at 3 mg/kg, po. Particulars: in vivo. The arrangement: dose 3 mg/kg, route oral. Format: ADME, organism-based.
The nature of data set [7]: Oral bioavailability in Sprague-Dawley rat at 3 mg/kg. In kind it is ADME, organism-based. Particulars: in vivo.
The subject of data set [8] is Rattus norvegicus. The data set is described as follows: Reduction of peripheral CD4+ T cell level in Wistar rat at 50 mg/kg, po after 14 to 24 hrs by flow cytometry analysis. In kind it is functional. The arrangement: scale not given: the % may be the effect or the level left. For orientation: A flow cytometer gives signals particle by particle.
For data set [9], the system named is Rattus norvegicus. The data set is described as follows: Reduction of peripheral CD4+ and CD8+ T cell level in Wistar rat at 2 mg/kg, po administered ever 12 hrs for 4 times measured 12 hrs after last dose by flow cytometry analysis. In kind it is functional. The arrangement: scale not given: the % may be the effect or the level left.
Data set [10] concerns Rattus norvegicus. The data set is described as follows: Reduction of peripheral B cell level in Wistar rat at 2 mg/kg, po administered ever 12 hrs for 4 times measured 12 hrs after last dose by flow cytometry analysis. In kind it is functional. The arrangement: scale not given: the % may be the effect or the level left.
A short description of data set [11]: Plasma concentration in Wistar rat at 2 mg/kg, po administered ever 12 hrs for 4 times measured 12 hrs after last dose. Format: ADME, organism-based. The arrangement: dose 2 mg/kg, route oral.
The nature of data set [12]: Drug level in blood of incomplete Freund's adjuvant-induced autoimmune encephalomyelitis DA rat model at 2 mg/kg, po bid administered 2 days before the induction of EAE. In kind it is organism-based. The arrangement: dose 2 mg/kg, route oral. Particulars: whole blood, read-out: Drug uptake.
Data set [13] can be described thus: Drug level in brain of incomplete Freund's adjuvant-induced autoimmune encephalomyelitis DA rat model at 2 mg/kg, po bid administered 2 days before the induction of EAE. The arrangement: dose 2 mg/kg, route oral. Particulars: read-out: Drug uptake. In kind it is organism-based.
Data set [14] relates to Rattus norvegicus. The data set is described as follows: Antiinflammatory activity in incomplete Freund's adjuvant-induced autoimmune encephalomyelitis DA rat model assessed as S1P level in lymph node at 2 mg/kg, po bid administered 2 days before the induction of EAE relative to control. In kind it is functional.
The subject of data set [15] is Rattus norvegicus. In words: Antiinflammatory activity in incomplete Freund's adjuvant-induced autoimmune encephalomyelitis DA rat model assessed as S1P level in brain at 2 mg/kg, po bid administered 2 days before the induction of EAE. Format: functional.
Data set [16] has as its target T1, Sphingosine-1-phosphate lyase 1. The data set is described as follows: Inhibition of S1PL (unknown origin).

Sequence of Protein smoothened (Q99835 whole entry): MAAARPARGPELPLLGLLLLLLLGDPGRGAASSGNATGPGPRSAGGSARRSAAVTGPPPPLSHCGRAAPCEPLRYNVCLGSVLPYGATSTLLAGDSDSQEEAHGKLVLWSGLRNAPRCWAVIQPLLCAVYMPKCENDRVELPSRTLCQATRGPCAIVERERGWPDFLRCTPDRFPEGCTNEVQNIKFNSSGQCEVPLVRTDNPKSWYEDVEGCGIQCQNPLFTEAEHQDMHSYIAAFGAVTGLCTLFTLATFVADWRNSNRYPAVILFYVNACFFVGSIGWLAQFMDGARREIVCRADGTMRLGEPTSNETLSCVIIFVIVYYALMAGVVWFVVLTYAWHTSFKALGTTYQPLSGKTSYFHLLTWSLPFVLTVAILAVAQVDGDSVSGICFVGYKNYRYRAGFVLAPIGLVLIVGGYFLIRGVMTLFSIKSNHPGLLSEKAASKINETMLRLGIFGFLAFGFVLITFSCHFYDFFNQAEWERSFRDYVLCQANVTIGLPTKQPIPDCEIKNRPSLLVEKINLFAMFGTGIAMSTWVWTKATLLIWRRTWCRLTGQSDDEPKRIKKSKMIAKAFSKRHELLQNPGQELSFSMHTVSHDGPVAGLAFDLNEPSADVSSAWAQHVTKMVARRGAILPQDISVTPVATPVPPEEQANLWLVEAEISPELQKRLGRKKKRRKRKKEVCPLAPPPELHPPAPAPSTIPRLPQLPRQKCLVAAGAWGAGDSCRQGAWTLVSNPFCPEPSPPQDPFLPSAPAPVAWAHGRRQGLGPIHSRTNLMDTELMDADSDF

For `CCOC(=O)c1ccc(N2CCN(c3nnc(Cc4ccccc4)c4ccccc34)C[C@H]2C)nc1`, the half-maximal inhibitory concentration (IC50) – broadly, the point on the concentration scale where inhibition reaches its midpoint – in data set [1] is 3.4 µM. On the same count and under the same terms, then `C[C@@H]1CN(c2nnc(Cc3ccccc3)c3ccccc23)CCN1c1ccc(C(F)(F)F)cn1`, with 30 µM. In turn, `C[C@@H]1CN(c2nnc(Cc3ccccc3)c3ccccc23)CCN1c1ccc([N+](=O)[O-])cn1` showed an IC50 in data set [1] of 0.74 µM. The same measure, in the same setting: as for `C[C@@H]1CN(c2nnc(Cc3ccccc3)c3ccccc23)CCN1c1ccc(C(=O)O)cn1`, the figure is more than 30 µM; as for `CC[C@@H]1CN(c2nnc(Cc3ccccc3)c3ccccc23)CCN1c1ccc(C#N)cn1`, 1.7 µM. Consider `CC(C)[C@@H]1CN(c2nnc(Cc3ccccc3)c3ccccc23)CCN1c1ccc(C#N)cn1`, for which, in [1], inhibition was half-maximal at 2.5 µM (IC50). Same read-out and setting: as for `C[C@@H]1CN(c2nnc(Cl)c3ccccc23)CCN1c1ccc(C#N)cn1`, the figure is more than 30 µM. Take `C[C@@H]1CN(c2nnc(-c3ccccc3)c3ccccc23)CCN1c1ccc(C#N)cn1`: the IC50 in data set [1] is more than 30 µM.

As to `C[C@@H]1CN(c2nnc(CCc3ccccc3)c3ccccc23)CCN1c1ccc(C#N)cn1`, the IC50 in [1] was 30 µM. Same read-out and setting: then `C[C@@H]1CN(c2nnc(Cc3ccccc3)c3cc(Cl)ccc23)CCN1c1ccc(C#N)cn1`, with 2.3 µM.

For `C[C@@H]1CN(c2nnc(Cc3ccccc3)c3ccc(Cl)cc23)CCN1c1ccc(C#N)cn1`, the IC50 on Protein smoothened is 0.44 µM; in [1] it was 0.21 µM. Also, in data set [2], the clearance (commonly the rate of elimination divided by the concentration) turned out to be 23 mL/min/kg. In data set [3], the half-life (as a rule, the time in which the quantity being followed falls by half) is 9.1 h. Besides, in data set [4], the AUC(0-inf) (commonly total exposure, with the tail of the curve extrapolated) stood at 1.3 µM·h. Also, in data set [5], the Cmax – broadly, the peak of the concentration-time curve – was 99 nM. In addition, in data set [6], the Tmax – broadly, the time from dosing to the highest level – amounted to 5 h. Further, the bioavailability (in general, the share of a dose that reaches the circulation, judged against a reference dose that is usually intravenous) in [7] worked out at 26%. For the same molecule, the Activity in the data set on Rattus norvegicus [8] is more than 80%; with Rattus norvegicus [9] it was more than 95%; in the data set on Rattus norvegicus [10], 70%; in the data set with Rattus norvegicus [15], 2.4 pmol/mg. For the same molecule, the concentration at 12 h in [11] is 400 nM. Also, the concentration at 48 h came out at 840 nM in data set [12] and 610 nM in data set [13]. Besides, the “fold change (FC)” value with Rattus norvegicus [14] was 150. In turn, `C[C@@H]1CN(c2nnc(Cc3ccccc3)c3cc(C(F)(F)F)ccc23)CCN1c1ccc(C#N)cn1` displayed an IC50 in data set [1] of 12 µM. On the same count and under the same terms, as for `C[C@@H]1CN(c2nnc(Cc3ccccc3)c3ccc(C(F)(F)F)cc23)CCN1c1ccc(C#N)cn1`, the figure is 0.1 µM; as for `C[C@@H]1CN(c2nnc(Cc3ccccc3)c3cc(C#N)ccc23)CCN1c1ccc(C#N)cn1`, 1.3 µM. In the case of `C[C@@H]1CN(c2nnc(Cc3ccccc3)c3ccc(C#N)cc23)CCN1c1ccc(C#N)cn1`, the IC50 on Protein smoothened is more than 25 µM. Turning to `CC(=O)c1nc([C@@H](O)[C@H](O)[C@H](O)CO)c[nH]1`, the IC50 in data set [16] is more than 100 µM.

The molecule `C[C@H]1CN(c2nnc(Cc3ccccc3)c3ccccc23)CCN1c1ccc(C#N)cn1` displayed a half-maximal inhibitory concentration (IC50) in data set [1] of more than 30 µM.

The molecule `C[C@@H]1CN(c2nnc(Cc3ccccc3)c3ccccc23)CCN1c1ccc(C#N)cn1` showed a concentration for half-maximal inhibition (IC50) in data set [1] of 2.4 µM. On the same count and under the same terms, as for `N#Cc1ccc(N2CCN(c3nnc(Cc4ccccc4)c4ccccc34)CC2)nc1`, the figure is more than 30 µM. Same read-out and setting: then `N#Cc1ccc(N2CCN(c3nnc(Cc4ccccc4)c4ccccc34)CC2CO)nc1` (single isomer, unassigned), with more than 30 µM. As for `CCCCCCCCc1ccc(CCC(N)(CO)CO)cc1` [FINGOLIMOD], the IC50 in data set [16] and in data set [1] was 17 µM in each case. Take `C/C(=N\O)c1nc([C@@H](O)[C@H](O)[C@H](O)CO)c[nH]1` [LX-2931]: in data set [16], the 50% inhibitory concentration (IC50) was more than 100 µM.
